Calls of active or inactive are those of the source. No cut-off for these calls is given here.
Tests used:
[1] = Distribution coefficient of the compound, log D at pH 7.4; format: physicochemical; details: octanol/water
[2] = biological target: Delta-type opioid receptor (Mus musculus, UniProt P32300)
Description: Agonist activity at delta opioid receptor in mouse vas deferens

Mu-type opioid receptor = Mu-type opioid receptor (Cavia porcellus, UniProt P97266); assay: Agonist activity at mu opioid receptor in myenteric plexus muscle from guinea pig; format: functional
[3] = biological target: Kappa-type opioid receptor (Cavia porcellus, UniProt P41144); assay: Agonist activity at kappa opioid receptor in myenteric plexus muscle from guinea pig; format: functional
Mus musculus [4] = assay: Effect on locomotor activity in mouse hyper locomotion model at 400 ug/kg, iv; format: functional, organism-based
[5] = biological target: Delta-type opioid receptor (Homo sapiens, UniProt P41143); assay: Binding affinity at human delta opioid receptor expressed in CHO cells; format: cell-based, Cricetulus griseus
[6] = Plasma clearance in dog; format: ADME, organism-based, Canis lupus familiaris
[7] = Volume of distribution in dog; format: ADME, organism-based, Canis lupus familiaris; details: in vivo, read-out: Vdss
[8] = Oral bioavailability in dog; format: ADME, organism-based, Canis lupus familiaris; details: in vivo
Mus musculus [9] = assay: Effect on locomotor activity in mouse hyper locomotion model at 1000 ug/kg, iv; format: functional, organism-based
Mus musculus [10] = assay: Effect on locomotor activity in mouse hyper locomotion model at 100 ug/kg, iv; format: functional, organism-based

Chain of Mu-type opioid receptor (P97266 whole entry): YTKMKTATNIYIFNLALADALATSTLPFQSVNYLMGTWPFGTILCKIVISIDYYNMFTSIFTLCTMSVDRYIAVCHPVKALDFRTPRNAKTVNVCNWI
Chain of Delta-type opioid receptor (Mus musculus, UniProt P32300) (P32300 whole entry): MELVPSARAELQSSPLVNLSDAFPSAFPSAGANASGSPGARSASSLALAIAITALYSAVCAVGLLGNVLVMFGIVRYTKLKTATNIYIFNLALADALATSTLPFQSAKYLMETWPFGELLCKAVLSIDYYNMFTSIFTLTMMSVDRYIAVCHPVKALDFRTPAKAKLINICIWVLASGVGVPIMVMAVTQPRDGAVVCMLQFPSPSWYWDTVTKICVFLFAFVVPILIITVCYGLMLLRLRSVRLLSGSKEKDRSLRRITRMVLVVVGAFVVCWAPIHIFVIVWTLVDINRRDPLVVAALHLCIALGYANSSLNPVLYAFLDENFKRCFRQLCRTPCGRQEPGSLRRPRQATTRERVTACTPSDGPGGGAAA
Chain of Kappa-type opioid receptor (P41144 whole entry): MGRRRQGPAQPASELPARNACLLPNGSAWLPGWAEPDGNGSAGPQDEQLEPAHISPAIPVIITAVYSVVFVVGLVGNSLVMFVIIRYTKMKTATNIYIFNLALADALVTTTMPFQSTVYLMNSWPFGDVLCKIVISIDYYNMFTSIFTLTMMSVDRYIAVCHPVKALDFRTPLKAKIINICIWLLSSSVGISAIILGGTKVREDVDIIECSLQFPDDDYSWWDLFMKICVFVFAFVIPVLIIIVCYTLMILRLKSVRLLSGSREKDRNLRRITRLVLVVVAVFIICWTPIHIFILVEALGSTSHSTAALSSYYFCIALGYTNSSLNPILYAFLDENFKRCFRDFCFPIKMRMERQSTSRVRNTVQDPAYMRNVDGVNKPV
Chain of Delta-type opioid receptor (Homo sapiens, UniProt P41143) (P41143 whole entry): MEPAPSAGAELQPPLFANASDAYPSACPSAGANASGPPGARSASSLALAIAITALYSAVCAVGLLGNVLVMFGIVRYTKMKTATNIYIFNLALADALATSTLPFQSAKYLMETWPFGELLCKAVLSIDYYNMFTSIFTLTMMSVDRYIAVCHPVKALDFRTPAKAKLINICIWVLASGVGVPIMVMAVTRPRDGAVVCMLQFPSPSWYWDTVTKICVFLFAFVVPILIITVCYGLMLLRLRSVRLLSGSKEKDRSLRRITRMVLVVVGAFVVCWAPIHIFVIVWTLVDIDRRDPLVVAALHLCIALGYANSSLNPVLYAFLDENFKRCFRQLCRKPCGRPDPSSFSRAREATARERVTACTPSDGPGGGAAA

Structure (SMILES) | logD [1] | IC50 [2] | IC50 (Mu-type opioid receptor) | IC50 [3] | further results
C[C@@H]1CN([C@H](c2ccc(-c3ccccc3C(=O)O)cc2)c2cccc(O)c2)[C@@H](C)CN1Cc1ccccc1 | 2.3 | 0.02 nM | – | – | –
COc1cccc([C@@H](c2ccc3c(c2)CN(CC(=O)O)C3)N2C[C@@H](C)N(Cc3ccccc3)C[C@@H]2C)c1 | – | 25.1 nM | – | – | –
C=CCN1C[C@H](C)N([C@H](c2ccc(C(=O)N(CC)CC)cc2)c2cccc(OC)c2)C[C@H]1C [SNC-80] | – | – | > 10000 nM | 1260 nM | Activity (Mus musculus [4]): Active
COc1cccc([C@@H](c2ccc3c(c2)CN(CC(=O)O)CC3)N2C[C@@H](C)N(Cc3ccccc3)C[C@@H]2C)c1 | 2.5 | 2 nM | 5010 nM | 1260 nM | IC50 [5]: 5.01 nM; clearance [6]: 17 mL/min/kg; Vd [7]: 5.4 L/kg; bioavailability [8]: 20%
C[C@@H]1CN([C@H](c2ccc(CC(=O)O)cc2)c2cccc(O)c2)[C@@H](C)CN1Cc1ccccc1 | 1.1 | 0.158 nM | – | – | Activity (Mus musculus [9]): Active
C[C@@H]1CN([C@@H](c2cccc(O)c2)c2ccc3c(c2)CN(CCC(=O)O)CC3)[C@@H](C)CN1Cc1ccccc1 | 2.1 | 0.00501 nM | 1000 nM | 5010 nM | –
C[C@@H]1CN([C@@H](c2cccc(O)c2)c2ccc3c(c2)CN(C(=O)C(=O)O)CC3)[C@@H](C)CN1Cc1ccccc1 | 1.6 | 0.00158 nM | 200 nM | 398 nM | –
C[C@@H]1CN([C@H](c2ccc(CCC(=O)O)cc2)c2cccc(O)c2)[C@@H](C)CN1Cc1ccccc1 | 2.1 | 0.126 nM | – | – | Activity (Mus musculus [10]): Active
C[C@@H]1CN([C@@H](c2cccc(F)c2)c2ccc3c(c2)CN(CCC(=O)O)C3)[C@@H](C)CN1Cc1ccccc1 | – | 25.1 nM | – | – | –
COc1cccc([C@@H](c2ccc3c(c2)CN(CCC(=O)O)C3)N2C[C@@H](C)N(Cc3ccccc3)C[C@@H]2C)c1 | – | 631 nM | > 10000 nM | > 10000 nM | –
C[C@@H]1CN([C@@H](c2cccc(O)c2)c2ccc3c(c2)CN(Cc2ccccc2C(=O)O)C3)[C@@H](C)CN1Cc1ccccc1 | – | 3.16 nM | – | – | –
COc1cccc([C@@H](c2ccc3c(c2)CN(C(=O)CC(=O)O)CC3)N2C[C@@H](C)N(Cc3ccccc3)C[C@@H]2C)c1 | 1.3 | 15.8 nM | – | – | –
C[C@@H]1CN([C@@H](c2cccc(O)c2)c2ccc3c(c2)CN(CC(=O)O)CC3)[C@@H](C)CN1Cc1ccccc1 | 2.1 | 0.0398 nM | 316 nM | 1000 nM | –
C=CCN1C[C@H](C)N([C@H](c2ccc(C(=O)N(CC)CC)cc2)c2cccc(O)c2)C[C@H]1C | – | 0.631 nM | – | – | –
C[C@@H]1CN([C@@H](c2cccc(F)c2)c2ccc3c(c2)CN(CCC(=O)O)CC3)[C@@H](C)CN1Cc1ccccc1 | – | 100 nM | – | – | –
C[C@@H]1CN([C@@H](c2ccccc2)c2ccc3c(c2)CN(CCC(=O)O)C3)[C@@H](C)CN1Cc1ccccc1 | – | 63.1 nM | – | – | –
C[C@@H]1CN([C@@H](c2cccc(O)c2)c2ccc3c(c2)CN(CCC(=O)O)C3)[C@@H](C)CN1Cc1ccccc1 | – | 1 nM | 631 nM | 7940 nM | –
C[C@@H]1CN([C@@H](c2cccc(O)c2)c2ccc3c(c2)CN(C(=O)c2ccccc2C(=O)O)C3)[C@@H](C)CN1Cc1ccccc1 | – | 0.316 nM | 50.1 nM | 3980 nM | –
COc1cccc([C@@H](c2ccc3c(c2)CN(CCC(=O)O)CC3)N2C[C@@H](C)N(Cc3ccccc3)C[C@@H]2C)c1 | 2.3 | 12.6 nM | > 10000 nM | 1000 nM | –
C[C@@H]1CN([C@@H](c2cccc(F)c2)c2ccc3c(c2)CN(C(=O)CC(=O)O)CC3)[C@@H](C)CN1Cc1ccccc1 | – | 20 nM | – | – | –
C[C@@H]1CN([C@@H](c2cccc(O)c2)c2ccc3c(c2)CN(C(=O)c2cccc(C(=O)O)c2)C3)[C@@H](C)CN1Cc1ccccc1 | – | 1.58 nM | 100 nM | 1260 nM | –
C[C@@H]1CN([C@@H](c2cccc(O)c2)c2ccc3c(c2)CN(CC(=O)O)C3)[C@@H](C)CN1Cc1ccccc1 | – | 0.501 nM | 126 nM | 1260 nM | –
C[C@@H]1CN([C@@H](c2cccc(O)c2)c2ccc3c(c2)CN(C(=O)CC(=O)O)CC3)[C@@H](C)CN1Cc1ccccc1 | 0.4 | 0.001 nM | 200 nM | 398 nM | –

— ChEMBL document CHEMBL1138105, “Highly potent and selective zwitterionic agonists of the delta-opioid receptor. Part 1” (Bioorg Med Chem Lett, 2006)
